In paper PMC3961306, “Comparison of the Cancer Gene Targeting and Biochemical Selectivities of All Targeted Kinase Inhibitors Approved for Clinical Use” (PLoS ONE, 2014):
Where two headings read alike, the source gives them in different places. One block for each compound: values may come before it.

Tests used:
[1] = test system: forty-four human cancer cell lines; test: Cell proliferation assay (ATPlite, 72 hours) in the 44 cell line Oncolines panel; assay type: cell-based; details: Homo sapiens
[2] = test system: mutant versus wild-type cell lines of the 44 cell line panel; test: Anova analysis of cell panel IC50s against cancer gene changes; standardized mean difference (targetedness)
[3] = 769-P, cell line 769-P, read-out: cell panel IC50, 769-P
[4] = 786-0, cell line 786-0, read-out: cell panel IC50, 786-0
[5] = A 172, read-out: cell panel IC50, A-172, cell line A-172
[6] = A204, cell line A-204, read-out: cell panel IC50, A-204
[7] = A498, read-out: cell panel IC50, A-498, cell line A-498
[8] = A549, read-out: cell panel IC50, A-549, cell line A-549
[9] = A-375, cell line A375, read-out: cell panel IC50, A375
[10] = A-427, read-out: cell panel IC50, A-427, cell line A-427
[11] = ACHN, cell line ACHN, read-out: cell panel IC50, ACHN
[12] = AN3-CA, cell line AN3 CA, read-out: cell panel IC50, AN3 CA
[13] = AU565, read-out: cell panel IC50, AU-565, cell line AU-565
[14] = BT-20, cell line BT-20, read-out: cell panel IC50, BT-20
[15] = BT-549, read-out: cell panel IC50, BT-549, cell line BT-549
[16] = BXPC-3, cell line BxPC-3, read-out: cell panel IC50, BxPC-3
[17] = C-33-A, cell line C-33 A, read-out: cell panel IC50, C-33 A
[18] = CAL-27, cell line CAL 27, read-out: cell panel IC50, CAL 27
[19] = CCRF-CEM, cell line CCRF-CEM, read-out: cell panel IC50, CCRF-CEM
[20] = DLD-1, cell line DLD-1, read-out: cell panel IC50, DLD-1
[21] = FaDu, cell line FaDu, read-out: cell panel IC50, FaDu
[22] = HCT-15, cell line HCT-15, read-out: cell panel IC50, HCT-15
[23] = HCT-116, read-out: cell panel IC50, HCT-116, cell line HCT-116
[24] = Hs-578T, cell line Hs 578T, read-out: cell panel IC50, Hs 578T
[25] = Jurkat E6.1, cell line Jurkat E6.1, read-out: cell panel IC50, Jurkat E6.1
[26] = K562, read-out: cell panel IC50, K-562, cell line K-562
[27] = LS174T, read-out: cell panel IC50, LS 174T, cell line LS 174T
[28] = LoVo, cell line LoVo, read-out: cell panel IC50, LoVo
[29] = MG-63, cell line MG-63, read-out: cell panel IC50, MG-63
[30] = MOLT-4, cell line MOLT-4, read-out: cell panel IC50, MOLT-4
[31] = MeWo, cell line MeWo, read-out: cell panel IC50, MeWo
[32] = NCI-H82, cell line NCI-H82, read-out: cell panel IC50, NCI-H82
[33] = NCI-H460, cell line NCI-H460, read-out: cell panel IC50, NCI-H460
[34] = OVCAR-3, cell line OVCAR-3, read-out: cell panel IC50, OVCAR-3
[35] = RPMI-7951, cell line RPMI-7951, read-out: cell panel IC50, RPMI-7951
[36] = SHP77, cell line SHP-77, read-out: cell panel IC50, SHP-77
[37] = SK-N-AS, cell line SK-N-AS, read-out: cell panel IC50, SK-N-AS
[38] = SW48, cell line SW48, read-out: cell panel IC50, SW48
[39] = SW480, cell line SW480, read-out: cell panel IC50, SW480
[40] = SW-620, cell line SW620, read-out: cell panel IC50, SW620
[41] = U2OS, cell line U-2 OS, read-out: cell panel IC50, U-2 OS
[42] = U-87 MG, 72 h, U-87 MG cell line, ATPlite, 72 hours, read-out: IC50 in cell proliferation assay (table S5 cellpanel data)
[43] = cell line J82, read-out: cell panel IC50, J82
[44] = cell line PA-1, read-out: cell panel IC50, PA-1
[45] = cell line SJCRH30, read-out: cell panel IC50, SJCRH30
[46] = cell line SR, read-out: cell panel IC50, SR

IC50 [1, 3]: 815 nM
IC50 [1, 4]: 3680 nM
IC50 [1, 5]: 11100 nM
IC50 [1, 6]: 653 nM
IC50 [1, 7]: 1010 nM
IC50 [1, 8]: 859 nM
IC50 [1, 9]: 397 nM
IC50 [1, 10]: 347 nM
IC50 [1, 11]: 1170 nM
IC50 [1, 12]: 3180 nM
IC50 [1, 13]: 993 nM
IC50 [1, 14]: 7380 nM
IC50 [1, 15]: 1180 nM
IC50 [1, 16]: 10700 nM
IC50 [1, 17]: 376 nM
IC50 [1, 18]: 525 nM
IC50 [1, 19]: 106 nM
IC50 [1, 20]: 5640 nM
IC50 [1, 21]: 1350 nM
IC50 [1, 22]: 1560 nM
IC50 [1, 23]: 658 nM
IC50 [1, 24]: 4000 nM
IC50 [1, 25]: 240 nM
IC50 [1, 26]: 1140 nM
IC50 [1, 27]: 219 nM
IC50 [1, 28]: 739 nM
IC50 [1, 29]: 2100 nM
IC50 [1, 30]: 57 nM
IC50 [1, 31]: 5240 nM
IC50 [1, 32]: 1010 nM
IC50 [1, 33]: 331 nM
IC50 [1, 34]: 22400 nM
IC50 [1, 35]: 701 nM
IC50 [1, 36]: > 31600 nM
IC50 [1, 37]: 1370 nM
IC50 [1, 38]: 205 nM
IC50 [1, 39]: 4650 nM
IC50 [1, 40]: 4180 nM
IC50 [1, 41]: 3330 nM
IC50 [1, 42]: 29400 nM
IC50 [1, 43]: 4940 nM
IC50 [1, 44]: 83 nM
IC50 [1, 45]: 1030 nM
IC50 [1, 46]: 47 nM
Structure (SMILES): COc1cc([C@@H]2c3cc4c(cc3[C@@H](O[C@@H]3O[C@@H]5CO[C@@H](C)O[C@H]5[C@H](O)[C@H]3O)[C@H]3COC(=O)[C@H]23)OCO4)cc(OC)c1O [etoposide]

Structure (SMILES): Cc1ccc(NC(=O)c2ccc(CN3CCN(C)CC3)cc2)cc1Nc1nccc(-c2cccnc2)n1 [imatinib]
targetedness (standardized logIC50 difference) ([2]; ABL1 oncogene targeting, Figure 5D): -9.84

Structure (SMILES): Cn1cnc2c(F)c(Nc3ccc(Br)cc3Cl)c(C(=O)NOCCO)cc21 [selumetinib]
Potency shift in cell lines expressing mutant β-catenin (CTNNB1) versus wild-type ([2]; CTNNB1 mutant versus wild-type, average): more than tenfold

Structure (SMILES): CNC(=O)c1cc(Oc2ccc(NC(=O)Nc3ccc(Cl)c(C(F)(F)F)c3)cc2)ccn1 [sorafenib]
IC50 ([1]; 4-4 cell, read-out: cell panel IC50, J82): 26500 nM
IC50 ([1]; 4-4 cell, read-out: cell panel IC50, PA-1): 11700 nM
IC50 ([1]; 4-4 cell, read-out: cell panel IC50, SJCRH30): 12100 nM
IC50 ([1]; 4-4 cell, read-out: cell panel IC50, SR): 11800 nM
IC50 ([1]; 769-P, read-out: cell panel IC50, 769-P): 12700 nM
IC50 ([1]; 786-0, read-out: cell panel IC50, 786-0): 11700 nM
IC50 ([1]; A 172, read-out: cell panel IC50, A-172): 22600 nM
IC50 ([1]; A204, read-out: cell panel IC50, A-204): 1620 nM
IC50 ([1]; A498, read-out: cell panel IC50, A-498): 18700 nM
IC50 ([1]; A549, read-out: cell panel IC50, A-549): 21200 nM
IC50 ([1]; A-375, read-out: cell panel IC50, A375): 28700 nM
IC50 ([1]; A-427, read-out: cell panel IC50, A-427): 7780 nM
IC50 ([1]; ACHN, read-out: cell panel IC50, ACHN): 17500 nM
IC50 ([1]; AN3-CA, read-out: cell panel IC50, AN3 CA): 9970 nM
IC50 ([1]; AU565, read-out: cell panel IC50, AU-565): 10400 nM
IC50 ([1]; BT-20, read-out: cell panel IC50, BT-20): 25000 nM
IC50 ([1]; BT-549, read-out: cell panel IC50, BT-549): 18200 nM
IC50 ([1]; BXPC-3, read-out: cell panel IC50, BxPC-3): 11100 nM
IC50 ([1]; C-33-A, read-out: cell panel IC50, C-33 A): 15900 nM
IC50 ([1]; CAL-27, read-out: cell panel IC50, CAL 27): 14000 nM
IC50 ([1]; CCRF-CEM, read-out: cell panel IC50, CCRF-CEM): 13000 nM
IC50 ([1]; DLD-1, read-out: cell panel IC50, DLD-1): 10500 nM
IC50 ([1]; FaDu, read-out: cell panel IC50, FaDu): 16200 nM
IC50 ([1]; HCT-15, read-out: cell panel IC50, HCT-15): 9900 nM
IC50 ([1]; HCT-116, read-out: cell panel IC50, HCT-116): 11900 nM
IC50 ([1]; Hs-578T, read-out: cell panel IC50, Hs 578T): 21600 nM
IC50 ([1]; Jurkat E6.1, read-out: cell panel IC50, Jurkat E6.1): 7940 nM
IC50 ([1]; K562, read-out: cell panel IC50, K-562): 9460 nM
IC50 ([1]; LS174T, read-out: cell panel IC50, LS 174T): 11700 nM
IC50 ([1]; LoVo, read-out: cell panel IC50, LoVo): 11300 nM
IC50 ([1]; MG-63, read-out: cell panel IC50, MG-63): 27400 nM
IC50 ([1]; MOLT-4, read-out: cell panel IC50, MOLT-4): 10500 nM
IC50 ([1]; MeWo, read-out: cell panel IC50, MeWo): 20900 nM
IC50 ([1]; NCI-H82, read-out: cell panel IC50, NCI-H82): 11300 nM
IC50 ([1]; NCI-H460, read-out: cell panel IC50, NCI-H460): 14100 nM
IC50 ([1]; OVCAR-3, read-out: cell panel IC50, OVCAR-3): > 31600 nM
IC50 ([1]; RPMI-7951, read-out: cell panel IC50, RPMI-7951): 20400 nM
IC50 ([1]; SHP77, read-out: cell panel IC50, SHP-77): 13600 nM
IC50 ([1]; SK-N-AS, read-out: cell panel IC50, SK-N-AS): 28900 nM
IC50 ([1]; SW48, read-out: cell panel IC50, SW48): 8300 nM
IC50 ([1]; SW480, read-out: cell panel IC50, SW480): 5330 nM
IC50 ([1]; SW-620, read-out: cell panel IC50, SW620): 5950 nM
IC50 ([1]; U2OS, read-out: cell panel IC50, U-2 OS): 15800 nM
IC50 ([1]; U-87 MG, 72 h, read-out: IC50 in cell proliferation assay (table S5 cellpanel data)): 28300 nM

IC50 [1, 3]: 13 nM
IC50 [1, 4]: 42 nM
IC50 [1, 5]: 5.3 nM
IC50 [1, 6]: 13 nM
IC50 [1, 7]: 20 nM
IC50 [1, 8]: 24 nM
IC50 [1, 9]: 5.46 nM
IC50 [1, 10]: 2.27 nM
IC50 [1, 11]: 54 nM
IC50 [1, 12]: 1.29 nM
IC50 [1, 13]: 3.21 nM
IC50 [1, 14]: 6 nM
IC50 [1, 15]: 2.73 nM
IC50 [1, 16]: 9 nM
IC50 [1, 17]: 4 nM
IC50 [1, 18]: 2.78 nM
IC50 [1, 19]: 3.26 nM
IC50 [1, 20]: 61 nM
IC50 [1, 21]: 8 nM
IC50 [1, 22]: 66 nM
IC50 [1, 23]: 5 nM
IC50 [1, 24]: 2.48 nM
IC50 [1, 25]: 2.85 nM
IC50 [1, 26]: 3.19 nM
IC50 [1, 27]: 5 nM
IC50 [1, 28]: 10 nM
IC50 [1, 29]: 3.53 nM
IC50 [1, 30]: 1.54 nM
IC50 [1, 31]: 8.43 nM
IC50 [1, 32]: 4.29 nM
IC50 [1, 33]: 35 nM
IC50 [1, 34]: 3.58 nM
IC50 [1, 35]: 2.24 nM
IC50 [1, 36]: 183 nM
IC50 [1, 37]: 2.3 nM
IC50 [1, 38]: 4.22 nM
IC50 [1, 39]: 7 nM
IC50 [1, 40]: 4.73 nM
IC50 [1, 41]: 22 nM
IC50 [1, 42]: 4.4 nM
IC50 [1, 43]: 28 nM
IC50 [1, 44]: 1.67 nM
IC50 [1, 45]: < 1 nM
IC50 [1, 46]: < 1 nM
Structure (SMILES): CC[C@]1(O)C[C@H]2CN(CCc3c([nH]c4ccccc34)[C@@](C(=O)OC)(c3cc4c(cc3OC)N(C=O)[C@H]3[C@@](O)(C(=O)OC)[C@H](OC(C)=O)[C@]5(CC)C=CCN6CC[C@]43[C@@H]65)C2)C1 [vincristine]
